Consider 1 compound from patent publication US7122533B2, “Cosalane compounds and methods for their use” (The United States of America as represented by the …, priority 1999, dated 2006).

Assay type in all cases: cell-based
The target in assay [1] is T1, human CCR1 (Homo sapiens, UniProt P32246).
T1 construct: expressed in transfected cells; host or cells: HEK-293
T1 sequence (P32246 1-355): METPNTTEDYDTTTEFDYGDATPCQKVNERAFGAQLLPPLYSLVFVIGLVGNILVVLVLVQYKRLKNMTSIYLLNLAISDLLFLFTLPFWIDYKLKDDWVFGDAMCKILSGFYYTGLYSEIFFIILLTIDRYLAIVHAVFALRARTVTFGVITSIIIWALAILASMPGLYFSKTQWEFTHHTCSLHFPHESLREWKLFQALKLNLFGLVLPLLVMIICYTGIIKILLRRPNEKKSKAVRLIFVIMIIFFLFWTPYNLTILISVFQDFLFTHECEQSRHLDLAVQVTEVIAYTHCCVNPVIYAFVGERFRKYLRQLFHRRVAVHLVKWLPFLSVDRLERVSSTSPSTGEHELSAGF
Nature of the assay: MIP1α-induced migration of CCR1 transfectants. The conditions noted are these: compound at 1 μM, data not shown. The procedure:
(§1) Human embryonic kidney cells 293 (HEK-293) transfected to express human CCR1, CCR3, or CCR5 receptors were cultured in Dulbecco's Modified Eagles Medium (DMEM, Biowhiftaker, Walkersville, Md.) containing 10% Fetal Bovine Serum (FBS, Hyclone, Logan, Utah), 2 mM glutamine and 100 U/ml penicillin and streptomycin (Quality Biologicals, Gaithersburg, Md.). Peripheral blood mononuclear cells were isolated from fresh normal donor apheresis packs by centrifugation over Ficoll. Monocytes were enriched by 85–95% using percoll fractionation (Pharmacia, Piscataway, N.J.).
(§2) The number of cells migrating to the chemokine mixtures was determined for binding media alone, and chemokine treated and untreated cells. HEK-293 cells transfected to express human CCR1, CCR3 or CCR5 receptors were resuspended in binding media at 7.5×10^5 cells/ml. Ten μm polyvinyl-free polycarbonate membranes (Neuro Probe) were treated with 47 ug/ml rat tail collagen type 1 (Collaborative Biomedical Products, Bedford, Md.) in RPMI-1640 overnight, dried and placed over the chemoattractants. The assembled chemotaxis chambers were incubated in a humidified CO2 incubator for 5.5–6 hours. After the incubation, the membranes were removed from the chemotaxis chamber assembly followed by gently removing cells from the upper side of the membrane. The stained and dried membrane was mounted and the cells on the underside of the membrane were counted at 200× magnification. The results are reported as the average number of cells per high powered field at a given chemokine concentration±standard deviation.
(§3) The ability of compound 3 to inhibit RANTES-induced migration of human embryonic kidney (HEK) cells transfected to express individual chemokine receptors was initially tested. Although the cosalane analog 3 (1 μM) had no effect on RANTES-induced migration of CCR5 transfectants, it inhibited 50% of RANTES-induced CCR1 transfectant migration (FIG. 2). In contrast, the MIP1α- and MIP1β-induced migration of CCR1 transfectants was not inhibited by compounds 1, 2 or 3 when tested at concentrations of 1 μM (data not shown).

Assay [2] concerns the target T1, human CCR1. Nature of the assay: RANTES-induced CCR1/HEK-293 transfectant migration. The method, then:
Human embryonic kidney cells 293 (HEK-293) transfected to express human CCR1, CCR3, or CCR5 receptors were cultured in Dulbecco's Modified Eagles Medium (DMEM, Biowhiftaker, Walkersville, Md.) containing 10% Fetal Bovine Serum (FBS, Hyclone, Logan, Utah), 2 mM glutamine and 100 U/ml penicillin and streptomycin (Quality Biologicals, Gaithersburg, Md.). Peripheral blood mononuclear cells were isolated from fresh normal donor apheresis packs by centrifugation over Ficoll.
as §2, with “magnification.” for “magnification. The results are reported as the average number of cells per high powered field at a given chemokine concentration±standard deviation.”

Assay [3] concerns human monocytes (SDF-1α-induced migration; CXCR4 ligand). Nature of the assay: SDF-1α-induced monocyte/lymphocyte migration. The conditions noted are these: compound at 1 μM, FIG. 1. The method, then: (§4) Monocyte chemotaxis was performed as previously described [Wang (1993) J. Immunol. 150:3022–3029]. Briefly, monocytes were resuspended in binding media (RPMI-1640 media containing 1% BSA, 25 mM HEPES, pH 8.0) at 1–2×10^6 cells/ml. Chemokines, diluted in binding media, were mixed with cosalane or the indicated cosalane analog and placed in the lower wells of a micro-chemotaxis chamber (Neuro Probe, Cabin John, Md.). Five micrometer polyvinyl-free polycarbonate membranes were placed over the chemokine mixtures. After the micro-chemotaxis chamber was assembled, 50 μl of cells were placed in the upper wells. The filled chemotaxis chambers were incubated in a humidified CO2 incubator for 90 minutes.
(§5) After incubating, the membranes were removed from the chemotaxis chamber assembly followed by gently removing the cells from the upper side of the membrane. Then cells on the lower side of the membrane were stained.
The number of cells migrating to the chemokine mixtures was determined for binding media alone, and chemokine treated and untreated cells. […] The stained and dried membrane was mounted and the cells on the underside of the membrane were counted at 200× magnification. […]
The ability of the cosalane analogs 3 and 4 to block SDF-1α (a CXCR4 ligand) and RANTES (a CCR1, CCR3, and CCR5 ligand) induced migration of human monocytes or lymphocytes was initially evaluated. […]

For assay [4], the system named is MCP-4/CCR2-mediated monocyte migration. Nature of the assay: MCP-4-induced human monocyte migration. The conditions noted are these: FIG. 3. The method, then:
as §4, §5, §2
Although MCP-4 is known to bind to CCR2 and CCR3, fresh primary human monocytes only express high levels of CCR2.

In a further assay the target is T2, human CCR5 (Homo sapiens, UniProt P51681).
T2 construct: expressed in transfected cells; host or cells: HEK-293
Nature of the assay: RANTES-induced CCR5/HEK-293 transfectant migration. The conditions noted are these: compound at 1 μM, FIG. 2. The method, then: as §1
as §2, with “After the incubation, the membranes were removed from the chemotaxis chamber assembly followed by gently removing cells from the upper side of the membrane.” left out, “The results are reported as the average number of cells per high powered field at a given chemokine concentration±standard deviation.” left out

Assay [5] concerns human monocytes (acetylated RANTES-induced migration). Nature of the assay: monocyte migration induced by acetylated (modified) RANTES. The conditions noted are these: 10 μM compound; acetylated RANTES 50–1000 ng/mL, FIG. 6. The procedure: as §4, §5
as §2, with “deviation. […]” for “deviation.”

For assay [6], the system named is human monocytes (MIP1-β-induced migration). Nature of the assay: MIP1-β-induced monocyte migration. The conditions noted are these: compound at 1 μM, chemokine at 2.5 ng/ml, data not shown. The method, then:
(§6) Monocyte chemotaxis was performed as previously described [Wang (1993) J. Immunol. 150:3022–3029]. Briefly, monocytes were resuspended in binding media (RPMI-1640 media containing 1% BSA, 25 mM HEPES, pH 8.0) at 1–2×10^6 cells/ml. […] Five micrometer polyvinyl-free polycarbonate membranes were placed over the chemokine mixtures. After the micro-chemotaxis chamber was assembled, 50 μl of cells were placed in the upper wells. The filled chemotaxis chambers were incubated in a humidified CO2 incubator for 90 minutes.
as §5
as §2, with “magnification.” for “magnification. The results are reported as the average number of cells per high powered field at a given chemokine concentration±standard deviation.”
(§7) It is noted that both MIP1-α and MIP1-β are ligands for CCR1, CCR5, and D6 (8).

The target of assay [7] is T1, human CCR1. Nature of the assay: MIP1β-induced migration of CCR1 transfectants. The note with it: compound at 1 μM, data not shown. The procedure: as §1, §2, §3
The subject of assay [8] is human monocytes (MIP1-α-induced migration). Nature of the assay: MIP1-α-induced monocyte migration. The conditions noted are these: compound at 1 μM, chemokine at 2.5 ng/ml, data not shown. The procedure: as §6, §5
as §2, with “magnification.” for “magnification. The results are reported as the average number of cells per high powered field at a given chemokine concentration±standard deviation.”
as §7

Assay [9] concerns human monocytes (RANTES-induced migration). Nature of the assay: RANTES-induced monocyte migration (micro-chemotaxis chamber). The procedure:
as §1, §4, §5, §2

T2 sequence (P51681 whole entry): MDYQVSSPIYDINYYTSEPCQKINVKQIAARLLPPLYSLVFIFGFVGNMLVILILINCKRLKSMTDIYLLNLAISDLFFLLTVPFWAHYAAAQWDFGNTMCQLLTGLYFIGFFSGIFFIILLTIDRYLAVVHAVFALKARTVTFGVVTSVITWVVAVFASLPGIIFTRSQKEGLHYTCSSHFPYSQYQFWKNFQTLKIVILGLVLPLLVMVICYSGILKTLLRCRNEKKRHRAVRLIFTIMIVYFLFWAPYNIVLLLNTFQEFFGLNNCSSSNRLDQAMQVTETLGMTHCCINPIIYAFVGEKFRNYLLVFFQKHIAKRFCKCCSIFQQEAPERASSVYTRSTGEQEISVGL

Consider `CC(C)CCCC(C)[C@H]1CCC2C3CCC4C[C@@H](CCC=C(c5cc(Cl)c(OCc6ccccc6C(=O)O)c(C(=O)O)c5)c5cc(Cl)c(OCc6ccccc6C(=O)O)c(C(=O)O)c5)CC[C@]4(C)C3CC[C@@]21C` (stereo partly shown) [Compound 3], for which the “inhibition of MIP1α-induced migration of CCR1 transfectants” value on human CCR1 [1] was “not inhibited”. Besides, testing at 1 µM against human CCR1 [2] (HEK293, compound at 1 μM, FIG. 2) gave an inhibition of 50%. Besides, the IC50 at human CCR1 [2] (≦ 5% standard error, NA = not active, read-out: IC50 (μM) RANTES-Induced CCRI/HEK Migration) was determined as 0.26 µM; in [9] (Homo sapiens, Monocyte, ≦ 5% standard error, NA = not active) it was 3.9 µM. For the same compound, the “inhibition of SDF-1α-induced monocyte migration” value in assay [3] is recorded as “effective inhibitor”. Further, the “block of MCP-4/CCR2-mediated monocyte migration” value in [4] is given as “block”. Besides, on human CCR5, the “effect on RANTES-induced migration of CCR5 transfectants” value is “no effect”. Moreover, in [5], the “inhibition of the activity of modified (acetylated) RANTES to attract monocytes” value is “not inhibited”. Also, the “inhibition of MIP1-β-induced monocyte migration” value in [6] is recorded as “neither MiP1-α- nor MIP1-β-induced monocyte migration was inhibited”. Further, at human CCR1 [7], the “inhibition of MIP1β-induced migration of CCR1 transfectants” value is listed as “not inhibited”. The “inhibition of MIP1-α-induced monocyte migration” value in assay [8] was “neither MiP1-α- nor MIP1-β-induced monocyte migration was inhibited”. Also, in assay [9] (compound at 1 μM, FIG. 1), the “inhibition of RANTES-induced monocyte migration” value is “effective inhibitor”. In addition, the “activity as inhibitors of RANTES-induced migration” value in [9] (discussion of Table 1) is listed as “retain activity”.
